Test results from patent US9884063B2, “Amido-substituted azole compounds” (Bayer Pharma Aktiengesellschaft, priority 2014, dated 2018).

Target: T1, TNKS2 (Homo sapiens, UniProt Q9H2K2)
T1 sequence (Q9H2K2 1-1166): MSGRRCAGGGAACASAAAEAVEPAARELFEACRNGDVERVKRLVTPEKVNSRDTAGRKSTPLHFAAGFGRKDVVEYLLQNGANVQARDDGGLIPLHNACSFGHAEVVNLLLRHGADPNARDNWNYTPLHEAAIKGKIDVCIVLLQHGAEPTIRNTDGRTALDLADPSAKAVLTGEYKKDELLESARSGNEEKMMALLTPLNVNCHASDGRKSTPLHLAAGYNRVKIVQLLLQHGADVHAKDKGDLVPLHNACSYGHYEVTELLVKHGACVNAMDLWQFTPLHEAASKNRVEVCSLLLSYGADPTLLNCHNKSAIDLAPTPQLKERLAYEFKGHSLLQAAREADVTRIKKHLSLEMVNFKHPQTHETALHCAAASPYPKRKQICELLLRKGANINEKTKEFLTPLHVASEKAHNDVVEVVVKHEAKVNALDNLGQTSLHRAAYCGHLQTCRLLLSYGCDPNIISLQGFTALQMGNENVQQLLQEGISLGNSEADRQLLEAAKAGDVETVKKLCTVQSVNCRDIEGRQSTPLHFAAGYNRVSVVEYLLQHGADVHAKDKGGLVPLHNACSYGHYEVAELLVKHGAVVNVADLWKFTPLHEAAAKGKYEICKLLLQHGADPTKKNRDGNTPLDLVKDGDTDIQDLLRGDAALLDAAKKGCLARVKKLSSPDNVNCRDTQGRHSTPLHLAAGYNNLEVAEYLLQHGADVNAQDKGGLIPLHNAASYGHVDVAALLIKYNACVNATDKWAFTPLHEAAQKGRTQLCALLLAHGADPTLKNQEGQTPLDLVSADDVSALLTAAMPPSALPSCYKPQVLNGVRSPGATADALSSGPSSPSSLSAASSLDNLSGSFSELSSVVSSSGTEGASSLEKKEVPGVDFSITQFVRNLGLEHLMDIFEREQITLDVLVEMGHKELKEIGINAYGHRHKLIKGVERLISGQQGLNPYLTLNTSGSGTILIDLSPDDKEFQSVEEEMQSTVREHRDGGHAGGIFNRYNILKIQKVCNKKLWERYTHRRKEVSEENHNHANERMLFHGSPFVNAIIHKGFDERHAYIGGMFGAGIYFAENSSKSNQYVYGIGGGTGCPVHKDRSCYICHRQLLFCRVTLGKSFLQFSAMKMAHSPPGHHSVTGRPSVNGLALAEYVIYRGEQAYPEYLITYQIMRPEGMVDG
Assay: Modified TNKS2 Assay 2 (auto-parsylation, [3H]-NAD+ SPA)
Type: biochemical
Conditions: 6 nM TNKS2, 96 well

| SMILES | IC50 |
| --- | --- |
| CN1CCCC(CNC(=O)c2[nH]cnc2C(=O)Nc2ccc(NC(=O)c3ccc(F)cc3Cl)cc2)C1 (stereo not shown) [Example 298, N^4-{4-[(2-chloro-4-fluorobenzoyl)amino]phenyl}-N^5-[(1-methylpiperidin-3-yl)methyl]-1H-imidazole-4,5-dicarboxamide] | 60 nM |
| O=C(Nc1ccc(NC(=O)c2ocnc2C(=O)NCCN2CCCCC2)cc1)c1ccc(F)cc1Cl [Example 303, N^5-{4-[(2-chloro-4-fluorobenzoyl)amino]phenyl}-N^4-[2-(piperidin-1-yl)ethyl]-1,3-oxazole-4,5-dicarboxamide] | 10 nM |
| CNC(=O)c1nc[nH]c1C(=O)Nc1ccc(NC(=O)c2cc(Cl)ccc2Cl)cc1 [Example 309, N^5-{4-[(2,5-dichlorobenzoyl)amino]phenyl}-N^4-methyl-1H-imidazole-4,5-dicarboxamide] | 340 nM |
| CNC(=O)c1nc[nH]c1C(=O)Nc1ccc(NC(=O)c2cc(Br)ccc2Cl)cc1 [Example 313, N^5-{4-[(5-bromo-2-chlorobenzoyl)amino]phenyl}-N^4-methyl-1H-imidazole-4,5-dicarboxamide] | 1000 nM |
| CNC(=O)c1nc[nH]c1C(=O)Nc1ccc(NC(=O)c2ccc(C#N)cc2)cc1 [Example 322, N^5-{4-[(4-cyanobenzoyl)amino]phenyl}-N^4-methyl-1H-imidazole-4,5-dicarboxamide] | 950 nM |
| CNC(=O)c1nc[nH]c1C(=O)Nc1ccc(NC(=O)c2ccc(Cl)cc2F)cc1 [Example 333, N^5-{4-[(4-chloro-2-fluorobenzoyl)amino]phenyl}-N^4-methyl-1H-imidazole-4,5-dicarboxamide] | 580 nM |
| CNC(=O)c1nc[nH]c1C(=O)Nc1ccc(NC(=O)c2ccc(Br)cc2Cl)cc1 [Example 334, N^5-{4-[(4-bromo-2-chlorobenzoyl)amino]phenyl}-N^4-methyl-1H-imidazole-4,5-dicarboxamide] | 30 nM |
| CNC(=O)c1nc[nH]c1C(=O)Nc1ccc(NC(=O)c2ccc(F)c(Cl)c2)cc1 [Example 340, N^5-{4-[(3-chloro-4-fluorobenzoyl)amino]phenyl}-N^4-methyl-1H-imidazole-4,5-dicarboxamide] | > 10000 nM |
| CNC(=O)c1nc[nH]c1C(=O)Nc1ccc(NC(=O)c2c(F)cc(F)cc2F)cc1 [Example 342, N^4-methyl-N^5-{4-[(2,4,6-trifluorobenzoyl)amino]phenyl}-1H-imidazole-4,5-dicarboxamide] | 540 nM |
| CNC(=O)c1nc[nH]c1C(=O)Nc1ccc(NC(=O)c2c(C)cccc2Cl)cc1 [Example 343, N^5-{4-[(2-chloro-6-methylbenzoyl)amino]phenyl}-N^4-methyl-1H-imidazole-4,5-dicarboxamide] | 1700 nM |
| CNC(=O)c1nc[nH]c1C(=O)Nc1ccc(NC(=O)c2ccc(C)c(Cl)c2)cc1 [Example 344, N^5-{4-[(3-chloro-4-methylbenzoyl)amino]phenyl}-N^4-methyl-1H-imidazole-4,5-dicarboxamide] | > 10000 nM |
| CNC(=O)c1nc[nH]c1C(=O)Nc1ccc(NC(=O)c2cc(C#N)ccc2F)cc1 [Example 349, N^5-{4-[(5-cyano-2-fluorobenzoyl)amino]phenyl}-N^4-methyl-1H-imidazole-4,5-dicarboxamide] | 2200 nM |
| CNC(=O)c1nc[nH]c1C(=O)Nc1ccc(NC(=O)c2cc(C(F)(F)F)ccc2Cl)cc1 [Example 352, N^5-(4-{[2-chloro-5-(trifluoromethyl)benzoyl]amino}phenyl)-N^4-methyl-1H-imidazole-4,5-dicarboxamide] | 1300 nM |
| CNC(=O)c1nc[nH]c1C(=O)Nc1ccc(NC(=O)c2cccc(Cl)n2)cc1 [Example 353, N^5-(4-{[(6-chloropyridin-2-yl)carbonyl]amino}phenyl)-N^4-methyl-1H-imidazole-4,5-dicarboxamide] | > 10000 nM |
| CNC(=O)c1nc[nH]c1C(=O)Nc1ccc(NC(=O)c2ncccc2C)cc1 [Example 356, N^4-methyl-N^5-(4-{[(3-methylpyridin-2-yl)carbonyl]amino}phenyl)-1H-imidazole-4,5-dicarboxamide] | 940 nM |
| CNC(=O)c1nc[nH]c1C(=O)Nc1ccc(NC(=O)c2ccc(F)c(Cl)c2F)cc1 [Example 359, N^5-{4-[(3-chloro-2,4-difluorobenzoyl)amino]phenyl}-N^4-methyl-1H-imidazole-4,5-dicarboxamide] | > 10000 nM |

| SMILES | IC50 |
| --- | --- |
| CNC(=O)c1nc[nH]c1C(=O)Nc1ccc(NC(=O)c2cc(F)ccc2Cl)cc1 [Example 361, N^5-{4-[(2-chloro-5-fluorobenzoyl)amino]phenyl}-N^4-methyl-1H-imidazole-4,5-dicarboxamide] | 100 nM |
| CNC(=O)c1nc[nH]c1C(=O)Nc1ccc(NC(=O)c2cc(C)ccn2)cc1 [Example 363, N^4-methyl-N^5-(4-{[(4-methylpyridin-2-yl)carbonyl]amino}phenyl)-1H-imidazole-4,5-dicarboxamide] | > 10000 nM |
| CNC(=O)c1nc[nH]c1C(=O)Nc1ccc(NC(=O)c2cc(F)ccc2OC)cc1 [Example 364, N^5-{4-[(5-fluoro-2-methoxybenzoyl)amino]phenyl}-N^4-methyl-1H-imidazole-4,5-dicarboxamide] | 7900 nM |
| CNC(=O)c1nc[nH]c1C(=O)Nc1ccc(NC(=O)c2cncc(C)c2)cc1 [Example 366, N^4-methyl-N^5-(4-{[(5-methylpyridin-3-yl)carbonyl]amino}phenyl)-1H-imidazole-4,5-dicarboxamide] | > 10000 nM |
| CNC(=O)c1nc[nH]c1C(=O)Nc1ccc(NC(=O)c2cccc(F)c2OC)cc1 [Example 367, N^5-{4-[(3-fluoro-2-methoxybenzoyl)amino]phenyl}-N^4-methyl-1H-imidazole-4,5-dicarboxamide] | > 10000 nM |
| CNC(=O)c1nc[nH]c1C(=O)Nc1ccc(NC(=O)c2cccc(F)c2Cl)cc1 [Example 370, N^5-{4-[(2-chloro-3-fluorobenzoyl)amino]phenyl}-N^4-methyl-1H-imidazole-4,5-dicarboxamide] | 2200 nM |
| CNC(=O)c1nc[nH]c1C(=O)Nc1ccc(NC(=O)c2nccnc2Cl)cc1 [Example 372, N^5-(4-{[(3-chloropyrazin-2-yl)carbonyl]amino}phenyl)-N^4-methyl-1H-imidazole-4,5-dicarboxamide] | 4800 nM |
| CNC(=O)c1nc[nH]c1C(=O)Nc1ccc(NC(=O)c2c(F)ccc(F)c2Cl)cc1 [Example 374, N^5-{4-[(2-chloro-3,6-difluorobenzoyl)amino]phenyl}-N^4-methyl-1H-imidazole-4,5-dicarboxamide] | 1300 nM |
| CNC(=O)c1nc[nH]c1C(=O)Nc1ccc(NC(=O)c2c(C)cccc2F)cc1 [Example 375, N^5-{4-[(2-fluoro-6-methylbenzoyl)amino]phenyl}-N^4-methyl-1H-imidazole-4,5-dicarboxamide] | 1200 nM |
| CNC(=O)c1nc[nH]c1C(=O)Nc1ccc(NC(=O)c2ccon2)cc1 [Example 376, N^4-methyl-N^5-{4-[(1,2-oxazol-3-ylcarbonyl)amino]phenyl}-1H-imidazole-4,5-dicarboxamide] | > 10000 nM |
| CNC(=O)c1nc[nH]c1C(=O)Nc1ccc(NC(=O)c2cc(F)c(F)cc2C)cc1 [Example 377, N^5-{4-[(4,5-difluoro-2-methylbenzoyl)amino]phenyl}-N^4-methyl-1H-imidazole-4,5-dicarboxamide] | 330 nM |
| O=C(Nc1ccc(NC(=O)c2nc[nH]c2C(=O)NCCN2CCCCC2)cc1)c1ccccc1Cl [Example 381, N^4-{4-[(2-chlorobenzoyl)amino]phenyl}-N^5-[2-(piperidin-1-yl)ethyl]-1H-imidazole-4,5-dicarboxamide] | 20 nM |
| O=C(Nc1ccc(NC(=O)c2[nH]cnc2C(=O)NCCc2ccccc2)cc1)c1ccc(F)cc1Cl [Example 384, N^5-{4-[(2-chloro-4-fluorobenzoyl)amino]phenyl}-N^4-(2-phenylethyl)-1H-imidazole-4,5-dicarboxamide] | 1700 nM |
| O=C(Nc1ccc(NC(=O)c2[nH]cnc2C(=O)NCCc2ccccn2)cc1)c1ccc(F)cc1Cl [Example 387, N^5-{4-[(2-chloro-4-fluorobenzoyl)amino]phenyl}-N^4-[2-(pyridin-2-yl)ethyl]-1H-imidazole-4,5-dicarboxamide] | 150 nM |
| CC(C)N(CCNC(=O)c1nc[nH]c1C(=O)Nc1ccc(NC(=O)c2ccc(F)cc2Cl)cc1)C(C)C [Example 389, N^5-{4-[(2-chloro-4-fluorobenzoyl)amino]phenyl}-N^4-{2-[di(propan-2-yl)amino]ethyl}-1H-imidazole-4,5-dicarboxamide] | 280 nM |
